Measured values taken from US11420962B2, “Indene derivatives useful in treating pain and inflammation” (TARO PHARMACEUTICALS INC., priority 2018, dated 2022).
pIC50: −log10 of the molar value.

Tests used:
[1] = system: Rats (female, Sprague-Dawley); assay: Rat ketamine cystitis (visceral pain); type: in vivo
Description: Rats (female, Sprague-Dawley) received daily intraperitoneal injections of saline (sham control) or ketamine (50 mg/kg) for 14 days. […] Referred mechanical sensitivity was assessed on Day 7 and Day 14 by application of a series of von Frey filaments to the lower abdomen and the nociceptive threshold was scored.

rats (male, Wistar) = assay: Rat monosodium iodoacetate-induced osteoarthritis; type: in vivo; conditions: for reduction difference in weight bearing as compared to the vehicle: PO, QD
Description: Representative compounds of the invention (i.e., test compounds) were administered to rats (male, Wistar) PO, QD, at 3 or 30 mg/kg, starting on Day 0 through to Day 21 of the study. Osteoarthritis was modeled by intra-articular injection of 3 mg of monosodium iodoacetate (MIA) in the right knee. Knee swelling, paw withdrawal threshold (mechanical allodynia) and the difference in weight bearing were measured on Day 0 (pre-induction) and on Days 3, 7, 14 and 21 post-MIA injection. Tramadol was used as a reference standard.

T cells = assay: T cell proliferation (anti-CD3/anti-CD28 dynabeads, CCK-8); type: cell-based, mice; conditions: Table 4, mouse T cells, 72 hours after dynabeads, read-out: Scoring (IC50, cell proliferation)
Description: Spleens were obtained from six male, CD-1 outbred mice, approximately 8 weeks old. Cells were harvested under sterile conditions by forcing each spleen though a cell filter (pore size 100 μm diameter). A homogenous cell suspension was obtained by washing the cells in fresh medium and passing cells through a smaller cell filter (pore size 70 μm).
Untouched T cells were isolated using the Pan T cell isolation kit (Miltenyi Biotech). Briefly, cells were counted and incubated with the required volume of antibody cocktail for 5 minutes at 4° C. before addition of microbeads and incubation for 10 minutes at 4° C. Labeled cells were retained in a magnetic column while unlabeled cells (T cells) passed through the column and were retained for use in the assay.
Cell viability was assessed by Trypan Blue exclusion and found to be >99% prior to transfer to plates. Isolated T cells were seeded out in 96 well plates at a density of 50,000 cells per well and allowed to incubate for 60 minutes in a humidified cell culture (37° C., 5% CO2) incubator prior to compound treatment. The media used for this assay (TexMACS, Miltenyi Biotech) was previously optimized for proliferation of T cells in serum free conditions.
Representative compounds of the invention (i.e., test compounds) were prepared as 30 mM stocks in 100% DMSO. Test compounds were initially diluted in media to yield 3 mM stocks before an additional 1:10 dilution in media was performed to yield working stocks of 300 μM (1% DMSO). Subsequent dilutions were performed in media (supplemented with 1% DMSO). When added to the assay plates (1:10 dilution), these yielded final concentrations in the assay plates of in 0.1% DMSO. The reference compound, Cyclosporin A, was prepared in an identical manner as above.
Unstimulated and Stimulated Control wells received an identical volume of TexMACS media/1% DMSO at this time, resulting in a final concentration of 0.1% DMSO across the plate. Mouse anti-CD3/anti-CD28 dynabeads were prepared (following the manufacturers' instructions) in TexMACS media and added to appropriate wells to achieve a final concentration of 1 bead per cell. Unstimulated Control wells then received an identical volume of TexMACS. Plates were centrifuged 72 hours after addition of dynabeads, (300×g for 3 minutes) to pellet the cells and 60% of the supernatant was removed to a fresh plate for analysis by ELISA. After removal of 60% of the supernatant for subsequent ELISA, cell proliferation was assessed using the CCK-8 assay.
Average response by the standard compound, cyclosporin A, was 1 uM.

[2] = system: Rats (male, Sprague-Dawley); assay: Spinal nerve ligation (neuropathic pain); type: in vivo
Source text: Rats (male, Sprague-Dawley) were anaesthetized and placed in a prone position and the left paraspinal muscles were separated from the spinous processes at the L6-S2 levels. The L6 transverse process was carefully removed to visually identify the L4-L6 spinal nerves. The left L5 spinal nerves were isolated and tightly ligated with 6-0 silk thread. The skin was sutured to close the open tissue and animals were allowed to recover for 1 week before pain assessment. Basal readings for mechanical allodynia and thermal hyperalgesia were performed using a dynamic plantar aesthesiometer and plantar test surface, respectively, before surgery. On Day 7 following surgery, mechanical allodynia and thermal hyperalgesia were assessed and animals were randomized into treatment groups based on these baseline readings. […] Thermal hyperalgesia and mechanical allodynia were tested at 0, 60 and 120 minutes post administration of compounds on Days 7 and 14.

## C=C1CC[C@H]2[C@H](CN)[C@@H]([C@@]3(C)Cc4cn[nH]c4C[C@@H]3CO)CC[C@]12C [Ia-1, ((5R,6S)-5-((3aS,4R,5S,7aS)-4-(aminomethyl)-7a-methyl-1-methyleneoctahydro-1H-inden-5-yl)-5-methyl-4,5,6,7-tetrahydro-1H-indazol-6-yl)methanol]
[1]; 1.0 mg/kg dose, PO, QD
  increase in the nociceptive threshold (relative to unchallenged): 61%
[1]; 3.0 mg/kg dose, PO, QD
  increase in the nociceptive threshold (relative to unchallenged): 69%
[1]; 10 mg/kg dose
  increase in the nociceptive threshold (relative to unchallenged): 85%
Rats (male, Wistar); 3.0 mg/kg dose
  reduction difference in weight bearing as compared to the vehicle: 50%
Rats (male, Wistar); 30 mg/kg
  reduction difference in weight bearing as compared to the vehicle: 57%
Rats (male, Wistar); Day 3, 3.0 mg/kg
  reduction in knee diameter as compared to the vehicle: 23%
Rats (male, Wistar); Day 3, 30 mg/kg
  reduction in knee diameter as compared to the vehicle: 43%
T cells
  pIC50: 4.82 to 5.22
[2]; 3 mg/kg
  overall increase in paw withdrawal threshold as compared to the vehicle: 48%
[2]; 10 mg/kg
  overall increase in paw withdrawal threshold as compared to the vehicle: 62%
[2]; 30 mg/kg
  overall increase in paw withdrawal threshold as compared to the vehicle: 82%
